Source: patent US20260294845A1, “Uses of Adrenalone to Manage Cardiotoxicity or Cardiovascular Disorders” (Emory University, priority 2023, published 2026)
Entries after “also recorded” stand apart in the source; their conditions may differ.

Assays:
RPMI8226 cells = experiment: Cell viability of RPMI8226 cells after carfilzomib with or without 4H10; type: cell-based; conditions: carfilzomib, 24 h, compared to DMSO
Method: (§1) (top) Proteasome activity of IMR-90 hiPSC-CMs was measured after the cells were treated with CFZ with or without 4H10 for 24 hours. (bottom, right, left) Proteasome activity and cell viability of RPMI8226 cells (cancer cells) were measured after the cells were treated with CFZ with or without 4H10 for 24 hours.
(§2) Experiments were designed to determine the effects of carfilzomib and 4H10 on proteasome activity and cell viability of RPMI8226 cell line, which has been investigated for the efficacy tests of carfilzomib in […].

[1] = carfilzomib, serum; read-out: maximum (or peak) serum concentration, Cmax; cited from earlier work
hiPSC-CMs [2] = experiment: Intracellular oxidative stress (ROS) of carfilzomib-treated hiPSC-CMs, DCFDA/H2DCFDA assay; type: cell-based, human; conditions: carfilzomib 5 μM alone, 24 h, SCVI hiPSC-CMs
Method: The quantification of oxidative stress was performed using DCFDA staining of SCVI hiPSC-CMs treated with Cfz with or without 4H10 for 24 hours.
The induction of oxidative stress is a crucial mechanism through which proteasome inhibitors induce apoptosis. To investigate if 4H10 could alleviate carfilzomib-induced increase of oxidative stress in cardiomyocytes, hiPSC-CMs were exposed to carfilzomib at 5 μM alone or together with 4H10 at various concentrations for 24 h. The production of cellular reactive oxygen species (ROS) was then measured using DCFDA/H2DCFDA assay kit.

hiPSC-CMs [3] = experiment: Effects of chemotherapeutic agents on function of hiPSC-CMs; type: cell-based, human; conditions: carfilzomib treatment
proteasome [4] = experiment: Proteasome activity in RPMI8226 cells after carfilzomib with or without 4H10; type: cell-based; conditions: carfilzomib, 24 h, compared to DMSO
Method: as §1, §2

proteasome [5] = experiment: Proteasome activity in hiPSC-CMs after carfilzomib with or without 4H10; type: cell-based, human; conditions: carfilzomib, 24 h, IMR-90 hiPSC-CMs, compared with DMSO
Method: as §1
The proteasome, responsible for the regulated degradation of proteins, is a key cellular component targeted by carfilzomib as part of its mechanism of action in cancer therapy. Therefore, in addition to validation of cardioprotective effects of 4H10 on cell viability and mitochondrial function, it is crucial to examine if 4H10 compromises the proteasome inhibition efficacy of carfilzomib.

hiPSC-CMs [6] = experiment: MitoTracker Red staining (mitochondrial content and activity) of carfilzomib-treated hiPSC-CMs, high-content imaging; type: cell-based, human; conditions: carfilzomib alone, 24 h, IMR-90 hiPSC-CMs
Method: MitoTracker™ Red staining was performed in IMR-90 hiPSC-CMs treated with CFZ with or without 4H10 for 24 hours.
(§3) A human induced pluripotent cell line (hiPSC line IMR90™, WiCell Research Institute) was fed daily on Matrigel™-coated plates with a defined medium for hiPSC culture, mTeSR1 medium. For CM differentiation, hiPSCs were induced using a growth factor-driven differentiation protocol as reported in Jha et al. Efficient differentiation of cardiomyocytes from human pluripotent stem cells with growth factors. Methods Mol Biol, 2015, 1299, 115-131. On the day of induction (day 0), medium was replaced with RPMI 1640 medium supplemented with 2% B27 minus insulin (a cell culture supplement) containing 100 ng/ml activin A. After induction for 24 h, the medium was replaced with fresh RPMI supplemented with 2% B27 minus insulin containing 10 ng/ml BMP4. From day 4 of differentiation, the medium was replaced with RPMI supplemented with 2% B27. On day 5, the cells were dissociated and reseeded into AggreWell400™ plates to acquire cardiac spheres. After 24 h, the cardiac spheres formed were collected and transferred to low-adhesion dishes for suspension culture. The medium was changed every other day. Cardiac spheres typically started beating spontaneously by day 7 to 9.
Mitochondria play a crucial role in energy production, cellular metabolism, and the regulation of cell death. Experiments indicate carfilzomib induces mitochondrial dysfunction in hiPSC-CMs. To assess the potential mitigating effects of 4H10 on carfilzomib-induced mitochondrial dysfunction, hiPSC-CMs were treated with carfilzomib alone or co-treated with 4H10 at various concentrations. Mitochondria were then visualized using MitoTracker™ Red dyes, which can accumulate in active mitochondria and allow for the measurement of mitochondrial content and activity in live cells.

hiPSC-CMs [7] = conditions: carfilzomib; Forghani et al., 2021; cited from earlier work
hiPSC-CMs [8] = experiment: Cell viability of hiPSC-CMs treated with carfilzomib with or without 4H10 (CellTiter-Blue); type: cell-based, human; conditions: carfilzomib 5 μM alone, 24 h, IMR-90 hiPSC-CMs, compared with DMSO
Method: Cell viability was analyzed after IMR-90 hiPSC-CMs were treated with carfilzomib (CFZ) with or without 4H10 for 24 hours. (n=5 cultures).
as §3
Cardiomyocytes derived from human pluripotent stem cells (hiPSC-CMs) were provide a new platform for the studies of cancer drug-induced side effects and therapies. Using these cells, lead molecules were identified indicating protective properties on cardiomyocytes from the toxic effect of chemotherapy agents and ethanol (EtOH). […] Oxidative stress is a common molecular mechanism for cardiotoxicity induced by chemotherapy including proteosome inhibitors.
Consistently, treatment of hiPSC-CMs induced cell death and cytotoxicity. To examine if 4H10 could protect cardiomyocytes from carfilzomib-induced cytotoxicity, hiPSC-CMs were treated with carfilzomib at 5 μM alone or together with 4H10 at various concentrations for 24 h and then examined cell viability using the CellTiter-Blue Cell Viability Assay. Cells treated with DMSO (vehicle) were used as a control.

patients = conditions: among the proteosome inhibitors; cited from earlier work

CC(C)C[C@H](NC(=O)[C@H](CCc1ccccc1)NC(=O)CN1CCOCC1)C(=O)N[C@@H](Cc1ccccc1)C(=O)N[C@@H](CC(C)C)C(=O)[C@@]1(C)CO1 [carfilzomib]
viability of RPMI8226 cells (RPMI8226 cells): significantly decreased the viability | Cmax [1]: 5.88 µM | DCFDA fluorescence intensity (oxidative stress) (hiPSC-CMs [2]): significant increase in DCFDA fluorescence intensity | Ca^2+ handling of hiPSC-CMs (hiPSC-CMs [3]): negatively affects | contractility of hiPSC-CMs (hiPSC-CMs [3]): negatively affects | mitochondrial function of hiPSC-CMs (hiPSC-CMs [3]): negatively affects | traction forces of hiPSC-CMs (hiPSC-CMs [3]): negatively affects | proteasome activity in RPMI8226 cells (proteasome [4]): suppressed | cellular proteasome activity (proteasome [5]): significant decrease in cellular proteasome activity | mitochondrial mass and activity (MitoTracker Red fluorescence intensity) (hiPSC-CMs [6]): reduction in mitochondrial mass and activity | molecular and functional alterations of hiPSC-CMs (hiPSC-CMs [7]): causes molecular and functional alterations | cell viability (cytotoxicity) after carfilzomib (hiPSC-CMs [8]): caused cytotoxicity; also recorded: significant decrease in cell viability | cardiotoxicity in clinic (patients): highest cardiotoxicity in clinic
